Results: patent US9181269B2, “Enantiomers of fluconazole analogues containing thieno-[2,-3-D]pyrimidin-4(3H)-one moiety as antifungal agents” (FDC Limited, priority 2011, dated 2015)
≈ marks a conversion by molar mass, not a printed value.

Experiments:
C. glabrata ATCC 90030 = assay: MIC by broth dilution, CG01; assay type: cell-based; details: RPMI 1640 pH 7.0, 48 hours; for MIC50: Nakaseomyces glabratus, ATCC90030, concentration exhibiting more than 50% inhibition vs positive control, read-out: MIC50 obtained by broth dilution method, MIC
Protocol: (§1) The compounds of Formula (1a) and (1b) were tested for antifungal activity against various strains of Candida(CA 01: Candida albicans ATCC 24433, CA 02: C. albicans ATCC 10231, CA 03: C. albicans ATCC 2091, CA 04: C. albicans ATCC 90028, CG 01: C. glabrata ATCC 90030, CK 01: C. Krusei ATCC 6258, CT 01: C. tropicalis ATCC 750). In vitro evaluation of antifungal activity was performed by determining the minimum inhibitory concentration (MIC) following standard broth dilution methods (CLSI: Reference method for broth dilution antifungal susceptibility testing of yeasts; Approved standard, second edition M27-A2, 2002; CLSI: Reference method for broth dilution antifungal susceptibility testing of filamentous fungi; […]. Known anti-fungal agents like Fluconazole and Amphotericin-B were used as standards. End points were determined after 48 hours visually and by using spectrophotometer wherever necessary. The activity parameters are enumerated in Table 10: […]

C. Krusei ATCC 6258 = assay: MIC by broth dilution, CK01; assay type: cell-based; details: RPMI 1640 pH 7.0, 48 hours; for MIC50: Pichia kudriavzevii, ATCC6258, concentration exhibiting more than 50% inhibition vs positive control, read-out: MIC50 obtained by broth dilution method, MIC
Protocol: as §1

C. tropicalis ATCC 750 = assay: MIC by broth dilution, CT01; assay type: cell-based; details: RPMI 1640 pH 7.0, 48 hours; for MIC50: Candida tropicalis, ATCC750, concentration exhibiting more than 50% inhibition vs positive control, read-out: MIC50 obtained by broth dilution method, MIC
Protocol: as §1

C. albicans ATCC 2091 = assay: MIC by broth dilution, CA03; assay type: cell-based, Candida albicans; details: RPMI 1640 pH 7.0, 48 hours; for MIC50: Candida albicans, ATCC2091, concentration exhibiting more than 50% inhibition vs positive control, read-out: MIC50 obtained by broth dilution method, MIC
Protocol: as §1

C. albicans ATCC 90028 = assay: MIC by broth dilution, CA04; assay type: cell-based, Candida albicans; details: RPMI 1640 pH 7.0, 48 hours; for MIC50: Candida albicans, ATCC90028, concentration exhibiting more than 50% inhibition vs positive control, read-out: MIC50 obtained by broth dilution method, MIC
Protocol: as §1

[1] = tested on: Candida albicans ATCC 24433; assay: MIC by broth dilution, CA01; assay type: cell-based; details: RPMI 1640 pH 7.0, 48 hours; for MIC50: Candida albicans, ATCC24433, concentration exhibiting more than 50% inhibition vs positive control, read-out: MIC50 obtained by broth dilution method, MIC
Protocol: as §1

C. albicans ATCC 10231 = assay: MIC by broth dilution, CA02; assay type: cell-based, Candida albicans; details: RPMI 1640 pH 7.0, 48 hours; for MIC50: Candida albicans, ATCC10231, concentration exhibiting more than 50% inhibition vs positive control, read-out: MIC50 obtained by broth dilution method, MIC
Protocol: as §1

[2] = concentration exhibiting complete inhibition

Row | Compound | MIC in μg/ml (Amphotericin B) (C. glabrata ATCC 90030; [2]) [µg/mL] | MIC in μg/ml (Amphotericin B) (C. Krusei ATCC 6258; [2]) [µg/mL] | MIC in μg/ml (Amphotericin B) (C. tropicalis ATCC 750; [2]) [µg/mL] | MIC in μg/ml (Amphotericin B) (C. albicans ATCC 2091; [2]) [µg/mL] | MIC in μg/ml (Amphotericin B) (C. albicans ATCC 90028; [2]) [µg/mL] | MIC in μg/ml (Amphotericin B) [1, 2] [µg/mL] | MIC in μg/ml (Amphotericin B) (C. albicans ATCC 10231; [2]) [µg/mL] | MIC50 (C. glabrata ATCC 90030) [µg/mL] | MIC50 (C. Krusei ATCC 6258) [µg/mL] | MIC50 (C. tropicalis ATCC 750) [µg/mL] | MIC50 (C. albicans ATCC 2091) [µg/mL] | MIC50 (C. albicans ATCC 90028) [µg/mL] | MIC50 [1] [µg/mL] | MIC50 (C. albicans ATCC 10231) [µg/mL]
1 | C[C@@H]1[C@H](O)[C@@H](C)/C=C/C=C/C=C/C=C/C=C/C=C/C=C/[C@H](O[C@@H]2O[C@H](C)[C@@H](O)[C@H](N)[C@@H]2O)C[C@@H]2O[C@](O)(C[C@@H](O)C[C@@H](O)[C@H](O)CC[C@@H](O)C[C@@H](O)CC(=O)O[C@H]1C)C[C@H](O)[C@H]2C(=O)O [AMB, Amphotericin-B, reference compound] | 0.25 (≈ 0.271 µM) | 0.5 (≈ 0.541 µM) | 0.5 (≈ 0.541 µM) | 0.5 (≈ 0.541 µM) | 0.5 (≈ 0.541 µM) | 0.25 (≈ 0.271 µM) | 0.5 (≈ 0.541 µM) | – | – | – | – | – | – | –
2 | OC(Cn1cncn1)(Cn1cncn1)c1ccc(F)cc1F [FLU, Fluconazole] | – | – | – | – | – | – | – | 4 (≈ 13.1 µM) | 64 (≈ 209 µM) | 2 (≈ 6.53 µM) | 0.5 (≈ 1.63 µM) | 0.5 (≈ 1.63 µM) | 1 (≈ 3.27 µM) | 1 (≈ 3.27 µM)
3 | CCCCCc1cc2c(=O)n(C[C@](O)(Cn3cncn3)c3ccc(F)cc3F)cnc2s1 [Formula 1b-02, (S)-3-[2-(2,4-difluorophenyl)-2-hydroxy-3-(1H-1,2,4-triazol-1-yl)propyl]-6-n-pentylthieno[2,3-d]pyrimidin-4(3H)-one] | – | – | – | – | – | – | – | 0.06 | 1 | 0.06 | 0.12 | 0.03 | 0.03 | 0.12
4 | CCCCCCCc1cc2c(=O)n(C[C@](O)(Cn3cncn3)c3ccc(F)cc3F)cnc2s1 [Formula 1b-03, (S)-3-[2-(2,4-Difluorophenyl)-2-hydroxy-3-[1,2,4]triazol-1-yl-propyl]-6-n-heptyl-thieno[2,3-d]pyrimidin-4(3H)-one] | – | – | – | – | – | – | – | 0.25 | 1 | 1 | 0.5 | 0.25 | 0.12 | 0.5
5 | CCCCCc1cc2c(=O)n(C[C@@](O)(Cn3cncn3)c3ccc(F)cc3F)cnc2s1 [Formula 1a-02, (R)-3-[2-(2,4-difluorophenyl)-2-hydroxy-3-(1H-1,2,4-triazol-1-yl)propyl]-6-n-pentylthieno[2,3-d]pyrimidin-4(3H)-one] | – | – | – | – | – | – | – | 4 | > 16 | 16 | 8 | 4 | 4 | 8
6 | CCCc1cc2c(=O)n(C[C@](O)(Cn3cncn3)c3ccc(F)cc3F)cnc2s1 [Formula 1b-04, (S)-3-[2-(2,4-Difluorophenyl)-2-hydroxy-3-[1,2,4]triazol-1-yl-propyl]-6-(n-propyl)-thieno[2,3-d]pyrimidin-4(3H)-one] | – | – | – | – | – | – | – | 0.03 | 1 | 0.06 | 0.03 | 0.03 | 0.03 | 0.06
7 | CCCCCCc1cc2c(=O)n(C[C@](O)(Cn3cncn3)c3ccc(F)cc3F)cnc2s1 [Formula 1b-01, (S)-3-[2-(2,4-Difluorophenyl)-2-hydroxy-3-[1,2,4]triazol-1-yl-propyl]-6-(n-hexyl)-thieno[2,3-d]pyrimidin-4(3H)-one] | – | – | – | – | – | – | – | 0.12 | 1 | 0.25 | 0.25 | 0.12 | 0.06 | 0.12
